The test system of test [1] is NQO1 positive human lung carcinoma lines A549. Briefly: Cell survival of A549 cells (SRB). Type of test: cell-based. To be noted: β-lap 0-6 μM 3 hr, survival 4 days later. As to the method:
(FIG. 18A) B16 NQO1 #1 cells were subcutaneously transplanted into C57BL/6 WT and Rag1KO mice (n=5/group), respectively. Tumor bearing mice were treated with β-lap (0.3 mg, i.t.) every other day for four times. (FIG. 18B) Changes of the immune cells in the tumor microenvironment 7 days after β-lap treatment. C57BL/6 mice (n=4/group) were transplanted with MC38 cells and intratumorally treated with 0.3 mg of β-lap for two times. 7 days after the last treatment, tumor tissue was removed and digested, and immune cells were analyzed with flow cytometer (unpaired student t-test was used to analyze the significance of changes, *P<0.05, **P<0.01). (FIG. 18C) C57BL/6 mice were transplanted with MC38 cells and treated with β-lap (0.3 mg, i.t.) every other day for four times. For T cell depletion, 200 μg of anti-CD4 or anti-CD8 antibodies were injected four times at three days interval during the treatment. […] Data are shown as mean±SEM.
Sulforhodamine B (SRB) Cytotoxicity Assay. 4,000 cells were planted in 96 or 48 well plate with triplicates. After overnight growth, cells were exposed to β-lapachone with or without NQO1 inhibitor dicoumarol (50 μM) for a 3-hour pulse.

In test [2] the test system is tumor-infiltrating immune cells. Briefly: Flow cytometric analysis of immune cells in tumor and organs. Type of test: in vivo, mice. As to the method:
(FIGS. 11A-B) Single cells were conducted from MC38 (FIG. 11A) or TC-1 (FIG. 11B) tumor tissues after 3 days of β-lap treatment. The frequency of CD11b+ Gr1+ cells were then analyzed by flow cytometry. (FIGS. 11C-D) C57BL/6 WT mice (n=5/group) were inoculated subcutaneously (s.c.) with 6×10^5 MC38 (FIG. 11C) or 1×10^5 TC-1 (FIG. 11D) cells and treated intratumorally (i.t.) with 0.3 (mg) of β-lap or vehicle on day 9, day 12, and day 15. Anti-Ly6G blocking Ab (200 μg) were intraperitoneally administered twice a week, starting on day 8. Tumor growth was monitored twice a week. Data are shown as mean±SEM from two to three independent experiments. **P<0.01, ***P<0.001, ****P<0.0001 determined by two-way ANOVA.
(FIG. 18A) B16 NQO1 #1 cells were subcutaneously transplanted into C57BL/6 WT and Rag1KO mice (n=5/group), respectively. Tumor bearing mice were treated with β-lap (0.3 mg, i.t.) every other day for four times. (FIG. 18B) Changes of the immune cells in the tumor microenvironment 7 days after β-lap treatment. […] 7 days after the last treatment, tumor tissue was removed and digested, and immune cells were analyzed with flow cytometer (unpaired student t-test was used to analyze the significance of changes, *P<0.05, **P<0.01). […]
6×10^5 MC38 cells were subcutaneously transplanted into C57BL/6 mice (n=3/group). […] (FIG. 23B) Quantification of immune populations from vehicle and IB-DNQ treated tumors. […] CFSE labeled splenocytes were treated with lethal dose IB-DNQ for 4 h followed by washing and stimulation with anti-CD3 (1 μg/ml) and anti-CD28 (2 μg/ml) for 48 h, proliferative CD8 T cells were then analyzed by flow cytometry assay. […] 24 h later, cell death was analyzed by flow cytometry. […]
Naïve (n=5/group) and IB-DNQ-cured MC38 tumor-free (n=7/group) C57BL/6 mice were re-challenged subcutaneously with 3×10^6 MC38 cells on the opposite site from the primary tumor 60 days after complete rejection. […] (FIG. 26F) DCs from LNs of tumor-free (TF) or tumor-bearing mice were stimulated with antigen induced by IB-DNQ (1 μM) for 5 h, then CD44 expression on DCs was assessed.

Molecules are shown by their SMILES.

The values below come from patent US20220160703A1, “TUMOR-SELECTIVE COMBINATION THERAPY” (The Board of Regents of The University of Texas System, priority 2019, published 2022).

For the compound `CC1(C)CCC2=C(O1)c1ccccc1C(=O)C2=O` [β-lap, β-lapachone], in test [1], the “response to β-lap in vitro” value is “sensitive”. Besides, the “T cells in treated tumors” value in test [2] (MC38, 7 days after β-lap 0.3 mg i.t. two times) is “increase in CD4^+ and CD8^+ T cells”. For the same compound, the “CD45+ cells, CD8+ T cells and CD8+ T cell:Treg cell ratio in tumor tissues” value in test [2] (MC38-OVA, 12 days after initial treatment) is given as “significant increase”. Also, the “tumor-infiltrating neutrophils (CD11b+Gr1+)” value in test [2] (after 3 days of β-lap treatment) was “significantly increased”.
